From ChEMBL document CHEMBL4507304, “Data for DCP probe TP-021” (2021)

Columns and labels:
[1] = test system: Tyrosine-protein kinase ABL1 (Homo sapiens), P00519 [E255K]; conditions: Compound concentration 1000.0 nM
[2] = biological target: Activin receptor type-2B (Homo sapiens) (UniProt Q13705); conditions: Compound concentration 1000.0 nM
[3] = test system: Serine/threonine-protein kinase B-raf (Homo sapiens), P15056 [V600E]; conditions: Compound concentration 1000.0 nM
[4] = biological target: Calcium/calmodulin-dependent protein kinase kinase 2 (Homo sapiens) (UniProt Q96RR4); conditions: Compound concentration 1000.0 nM
[5] = biological target: Cyclin-dependent kinase 4 (Homo sapiens) (UniProt P11802); conditions: Compound concentration 1000.0 nM
[6] = biological target: Myotonin-protein kinase (Homo sapiens) (UniProt Q09013); conditions: Compound concentration 1000.0 nM
[7] = test system: Epidermal growth factor receptor (Homo sapiens), P00533 [UNDEFINED MUTATION]; conditions: Compound concentration 1000.0 nM
[8] = biological target: Ephrin type-A receptor 1 (Homo sapiens) (UniProt P21709); conditions: Compound concentration 1000.0 nM
[9] = biological target: Focal adhesion kinase 1 (Homo sapiens) (UniProt Q05397); conditions: Compound concentration 1000.0 nM
[10] = biological target: Fibroblast growth factor receptor 1 (Homo sapiens) (UniProt P11362); conditions: Compound concentration 1000.0 nM
[11] = test system: Receptor-type tyrosine-protein kinase FLT3 (Homo sapiens), P36888 [UNDEFINED MUTATION]; conditions: Compound concentration 1000.0 nM
[12] = biological target: Receptor-type tyrosine-protein kinase FLT3 (Homo sapiens) (UniProt P36888); conditions: Compound concentration 1000.0 nM
[13] = biological target: Serine/threonine-protein kinase ICK (Homo sapiens) (UniProt Q9UPZ9); conditions: Compound concentration 1000.0 nM
[14] = biological target: Insulin-like growth factor 1 receptor (Homo sapiens) (UniProt P08069); conditions: Compound concentration 1000.0 nM
[15] = biological target: Tyrosine-protein kinase JAK1 (Homo sapiens) (UniProt P23458); conditions: Compound concentration 1000.0 nM
[16] = test system: Leucine-rich repeat serine/threonine-protein kinase 2 (Homo sapiens), Q5S007 [G2019S]; conditions: Compound concentration 1000.0 nM
[17] = biological target: Mitogen-activated protein kinase kinase kinase 3 (Homo sapiens) (UniProt Q99759); conditions: Compound concentration 1000.0 nM
[18] = biological target: MAP/microtubule affinity-regulating kinase 3 (Homo sapiens) (UniProt P27448); conditions: Compound concentration 1000.0 nM
[19] = biological target: MAP/microtubule affinity-regulating kinase 4 (Homo sapiens) (UniProt Q96L34); conditions: Compound concentration 1000.0 nM
[20] = biological target: Hepatocyte growth factor receptor (Homo sapiens) (UniProt P08581); conditions: Compound concentration 1000.0 nM
[21] = biological target: Serine/threonine-protein kinase Nek1 (Homo sapiens) (UniProt Q96PY6); conditions: Compound concentration 1000.0 nM
[22] = biological target: Serine/threonine-protein kinase Nek6 (Homo sapiens) (UniProt Q9HC98); conditions: Compound concentration 1000.0 nM
[23] = biological target: Serine/threonine-protein kinase PAK 3 (Homo sapiens) (UniProt O75914); conditions: Compound concentration 1000.0 nM
[24] = biological target: Serine/threonine-protein kinase PAK 6 (Homo sapiens) (UniProt Q9NQU5); conditions: Compound concentration 1000.0 nM
[25] = biological target: Calcium-dependent protein kinase 1 (Plasmodium falciparum) (UniProt P62344); conditions: Compound concentration 1000.0 nM
[26] = biological target: Membrane-associated tyrosine- and threonine-specific cdc2-inhibitory kinase (Homo sapiens) (UniProt Q99640); conditions: Compound concentration 1000.0 nM
[27] = test system: Proto-oncogene tyrosine-protein kinase receptor Ret (Homo sapiens), P07949 [V804M]; conditions: Compound concentration 1000.0 nM
[28] = biological target: Ribosomal protein S6 kinase alpha-3 (Homo sapiens) (UniProt P51812); conditions: Compound concentration 1000.0 nM
[29] = biological target: Ribosomal protein S6 kinase alpha-6 (Homo sapiens) (UniProt Q9UK32); conditions: Compound concentration 1000.0 nM
[30] = biological target: STE20-like serine/threonine-protein kinase (Homo sapiens) (UniProt Q9H2G2); conditions: Compound concentration 1000.0 nM
[31] = biological target: Tyrosine-protein kinase Srms (Homo sapiens) (UniProt Q9H3Y6); conditions: Compound concentration 1000.0 nM
[32] = biological target: STE20/SPS1-related proline-alanine-rich protein kinase (Homo sapiens) (UniProt Q9UEW8); conditions: Compound concentration 1000.0 nM
[33] = biological target: Tyrosine-protein kinase SYK (Homo sapiens) (UniProt P43405); conditions: Compound concentration 1000.0 nM
[34] = biological target: Serine/threonine-protein kinase tousled-like 2 (Homo sapiens) (UniProt Q86UE8); conditions: Compound concentration 1000.0 nM
[35] = biological target: Serine/threonine-protein kinase WNK2 (Homo sapiens) (UniProt Q9Y3S1); conditions: Compound concentration 1000.0 nM
[36] = biological target: Serine/threonine-protein kinase 32B (Homo sapiens) (UniProt Q9NY57); conditions: Compound concentration 1000.0 nM
[37] = biological target: Serine/threonine-protein kinase 32C (Homo sapiens) (UniProt Q86UX6); conditions: Compound concentration 1000.0 nM
[38] = biological target: Mitogen-activated protein kinase kinase kinase 20 (Homo sapiens) (UniProt Q9NYL2); conditions: Compound concentration 1000.0 nM
[39] = biological target: 5-hydroxytryptamine receptor 1D (Homo sapiens) (UniProt P28221); conditions: Compound concentration 10.0 uM
[40] = biological target: 5-hydroxytryptamine receptor 2A (Homo sapiens) (UniProt P28223); conditions: Compound concentration 10.0 uM
[41] = biological target: 5-hydroxytryptamine receptor 3A (Homo sapiens) (UniProt P46098); conditions: Compound concentration 10.0 uM
[42] = biological target: Delta-type opioid receptor (Homo sapiens) (UniProt P41143); conditions: Compound concentration 10.0 uM
[43] = biological target: Histamine H3 receptor (Homo sapiens) (UniProt Q9Y5N1); conditions: Compound concentration 10.0 uM
[44] = biological target: Alpha-2B adrenergic receptor (Homo sapiens) (UniProt P18089); conditions: Compound concentration 10.0 uM
[45] = biological target: Muscarinic acetylcholine receptor M1 (Homo sapiens) (UniProt P11229); conditions: Compound concentration 10.0 uM

Calcium/calmodulin-dependent protein kinase kinase 2 (Homo sapiens), sequence (Q96RR4 2-588 limits assumed): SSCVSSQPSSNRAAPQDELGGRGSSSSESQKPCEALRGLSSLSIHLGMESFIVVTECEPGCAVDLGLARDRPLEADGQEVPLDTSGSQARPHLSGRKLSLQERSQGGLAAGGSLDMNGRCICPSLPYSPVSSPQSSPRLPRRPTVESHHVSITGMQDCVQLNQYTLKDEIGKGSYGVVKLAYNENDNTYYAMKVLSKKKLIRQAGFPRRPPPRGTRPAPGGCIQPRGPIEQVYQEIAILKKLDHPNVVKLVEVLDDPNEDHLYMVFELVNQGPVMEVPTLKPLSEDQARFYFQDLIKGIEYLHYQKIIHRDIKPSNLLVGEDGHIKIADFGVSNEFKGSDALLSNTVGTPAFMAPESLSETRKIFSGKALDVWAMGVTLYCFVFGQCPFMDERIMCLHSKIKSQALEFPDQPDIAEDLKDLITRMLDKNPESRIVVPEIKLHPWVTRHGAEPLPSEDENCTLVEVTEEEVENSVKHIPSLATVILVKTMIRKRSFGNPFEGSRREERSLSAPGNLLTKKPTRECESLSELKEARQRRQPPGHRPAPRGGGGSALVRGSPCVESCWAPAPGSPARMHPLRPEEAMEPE
Myotonin-protein kinase (Homo sapiens), sequence (Q09013 whole entry): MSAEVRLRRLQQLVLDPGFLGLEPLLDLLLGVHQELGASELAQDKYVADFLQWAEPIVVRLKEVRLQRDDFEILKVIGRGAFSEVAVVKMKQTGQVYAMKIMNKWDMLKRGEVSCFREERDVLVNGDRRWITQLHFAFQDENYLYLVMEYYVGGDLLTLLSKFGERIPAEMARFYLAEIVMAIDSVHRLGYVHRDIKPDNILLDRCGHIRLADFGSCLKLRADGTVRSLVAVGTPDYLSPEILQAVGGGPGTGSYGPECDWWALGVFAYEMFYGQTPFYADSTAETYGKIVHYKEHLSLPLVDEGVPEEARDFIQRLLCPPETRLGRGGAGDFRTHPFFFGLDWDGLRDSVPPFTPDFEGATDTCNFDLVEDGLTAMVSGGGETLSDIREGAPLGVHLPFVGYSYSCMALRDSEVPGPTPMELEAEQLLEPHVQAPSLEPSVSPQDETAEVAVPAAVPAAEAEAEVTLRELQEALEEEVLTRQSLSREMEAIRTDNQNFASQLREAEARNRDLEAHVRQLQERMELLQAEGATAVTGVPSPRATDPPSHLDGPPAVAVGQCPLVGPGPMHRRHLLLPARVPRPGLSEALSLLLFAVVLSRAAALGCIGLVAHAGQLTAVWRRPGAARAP
Alpha-2B adrenergic receptor (Homo sapiens), sequence (P18089 whole entry): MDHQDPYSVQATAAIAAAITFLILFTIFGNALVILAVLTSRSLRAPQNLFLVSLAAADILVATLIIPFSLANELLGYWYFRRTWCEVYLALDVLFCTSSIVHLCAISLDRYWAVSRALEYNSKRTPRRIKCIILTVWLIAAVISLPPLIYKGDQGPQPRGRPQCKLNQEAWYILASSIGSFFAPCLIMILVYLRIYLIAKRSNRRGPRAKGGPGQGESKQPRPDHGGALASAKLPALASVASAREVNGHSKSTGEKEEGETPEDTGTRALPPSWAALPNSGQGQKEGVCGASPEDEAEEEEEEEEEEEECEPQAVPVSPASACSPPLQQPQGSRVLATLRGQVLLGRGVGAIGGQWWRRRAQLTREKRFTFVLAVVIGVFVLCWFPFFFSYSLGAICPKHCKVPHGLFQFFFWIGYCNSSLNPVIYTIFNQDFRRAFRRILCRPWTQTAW
Mitogen-activated protein kinase kinase kinase 20 (Homo sapiens), sequence (Q9NYL2 2-800 limits assumed): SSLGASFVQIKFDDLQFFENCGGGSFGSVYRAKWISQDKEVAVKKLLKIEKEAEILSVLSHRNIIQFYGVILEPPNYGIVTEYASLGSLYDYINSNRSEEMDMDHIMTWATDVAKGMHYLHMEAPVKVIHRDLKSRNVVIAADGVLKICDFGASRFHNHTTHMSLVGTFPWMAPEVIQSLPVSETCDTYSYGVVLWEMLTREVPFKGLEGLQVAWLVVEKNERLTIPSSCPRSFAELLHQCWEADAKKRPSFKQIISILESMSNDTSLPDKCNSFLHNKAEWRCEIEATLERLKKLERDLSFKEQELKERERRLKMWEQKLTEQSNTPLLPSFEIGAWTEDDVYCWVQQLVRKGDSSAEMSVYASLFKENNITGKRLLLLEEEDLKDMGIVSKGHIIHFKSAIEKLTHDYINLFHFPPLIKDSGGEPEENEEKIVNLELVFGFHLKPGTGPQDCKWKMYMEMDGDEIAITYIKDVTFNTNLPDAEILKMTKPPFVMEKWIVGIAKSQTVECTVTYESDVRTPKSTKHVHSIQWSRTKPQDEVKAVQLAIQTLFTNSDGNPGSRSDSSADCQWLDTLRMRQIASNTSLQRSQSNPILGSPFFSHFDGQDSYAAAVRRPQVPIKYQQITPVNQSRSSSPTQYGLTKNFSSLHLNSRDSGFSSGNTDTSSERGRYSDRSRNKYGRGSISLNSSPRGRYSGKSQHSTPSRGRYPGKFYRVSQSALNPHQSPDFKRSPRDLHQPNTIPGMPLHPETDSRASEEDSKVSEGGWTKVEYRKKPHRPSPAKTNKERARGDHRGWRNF
Tyrosine-protein kinase Srms (Homo sapiens), sequence (Q9H3Y6 whole entry): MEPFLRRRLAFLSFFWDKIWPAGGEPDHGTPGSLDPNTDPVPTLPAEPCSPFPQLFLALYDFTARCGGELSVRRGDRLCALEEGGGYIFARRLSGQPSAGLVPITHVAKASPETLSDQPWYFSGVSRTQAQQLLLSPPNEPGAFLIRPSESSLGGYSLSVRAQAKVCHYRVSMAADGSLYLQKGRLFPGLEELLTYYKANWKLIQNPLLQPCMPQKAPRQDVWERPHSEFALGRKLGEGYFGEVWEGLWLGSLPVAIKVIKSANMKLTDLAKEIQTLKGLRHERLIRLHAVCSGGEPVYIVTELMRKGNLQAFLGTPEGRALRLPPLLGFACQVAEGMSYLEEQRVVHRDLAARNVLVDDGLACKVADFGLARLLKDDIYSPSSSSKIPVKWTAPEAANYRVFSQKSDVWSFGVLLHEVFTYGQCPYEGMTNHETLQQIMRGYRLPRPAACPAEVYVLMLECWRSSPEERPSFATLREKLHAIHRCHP
Serine/threonine-protein kinase 32C (Homo sapiens), sequence (Q86UX6 whole entry): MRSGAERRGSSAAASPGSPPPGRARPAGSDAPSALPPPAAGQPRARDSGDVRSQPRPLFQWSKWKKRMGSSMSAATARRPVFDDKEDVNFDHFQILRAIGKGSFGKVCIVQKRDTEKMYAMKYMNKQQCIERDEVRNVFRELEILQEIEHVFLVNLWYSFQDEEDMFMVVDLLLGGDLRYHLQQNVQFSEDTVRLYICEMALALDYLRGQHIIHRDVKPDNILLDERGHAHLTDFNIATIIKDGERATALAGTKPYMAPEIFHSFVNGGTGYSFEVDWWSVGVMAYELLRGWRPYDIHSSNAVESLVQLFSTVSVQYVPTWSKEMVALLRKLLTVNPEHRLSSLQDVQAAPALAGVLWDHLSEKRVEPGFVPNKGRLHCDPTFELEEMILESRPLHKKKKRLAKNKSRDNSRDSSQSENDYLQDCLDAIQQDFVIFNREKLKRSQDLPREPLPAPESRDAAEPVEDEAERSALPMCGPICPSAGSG
Activin receptor type-2B (Homo sapiens), sequence (Q13705 whole entry): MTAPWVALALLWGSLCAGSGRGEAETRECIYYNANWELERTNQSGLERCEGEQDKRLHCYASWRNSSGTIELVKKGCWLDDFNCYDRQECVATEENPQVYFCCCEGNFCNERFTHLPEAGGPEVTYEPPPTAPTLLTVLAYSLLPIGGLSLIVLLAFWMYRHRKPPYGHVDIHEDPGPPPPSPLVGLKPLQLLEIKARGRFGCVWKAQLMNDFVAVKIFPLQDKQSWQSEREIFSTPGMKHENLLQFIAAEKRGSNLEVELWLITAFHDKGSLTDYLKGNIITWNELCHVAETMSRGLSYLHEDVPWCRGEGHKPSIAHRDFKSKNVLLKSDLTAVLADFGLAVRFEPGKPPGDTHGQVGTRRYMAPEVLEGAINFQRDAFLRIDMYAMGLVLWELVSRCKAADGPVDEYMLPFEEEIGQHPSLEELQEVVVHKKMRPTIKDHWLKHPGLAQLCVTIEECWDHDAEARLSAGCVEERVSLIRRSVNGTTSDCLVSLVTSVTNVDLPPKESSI
Ephrin type-A receptor 1 (Homo sapiens), sequence (P21709 whole entry): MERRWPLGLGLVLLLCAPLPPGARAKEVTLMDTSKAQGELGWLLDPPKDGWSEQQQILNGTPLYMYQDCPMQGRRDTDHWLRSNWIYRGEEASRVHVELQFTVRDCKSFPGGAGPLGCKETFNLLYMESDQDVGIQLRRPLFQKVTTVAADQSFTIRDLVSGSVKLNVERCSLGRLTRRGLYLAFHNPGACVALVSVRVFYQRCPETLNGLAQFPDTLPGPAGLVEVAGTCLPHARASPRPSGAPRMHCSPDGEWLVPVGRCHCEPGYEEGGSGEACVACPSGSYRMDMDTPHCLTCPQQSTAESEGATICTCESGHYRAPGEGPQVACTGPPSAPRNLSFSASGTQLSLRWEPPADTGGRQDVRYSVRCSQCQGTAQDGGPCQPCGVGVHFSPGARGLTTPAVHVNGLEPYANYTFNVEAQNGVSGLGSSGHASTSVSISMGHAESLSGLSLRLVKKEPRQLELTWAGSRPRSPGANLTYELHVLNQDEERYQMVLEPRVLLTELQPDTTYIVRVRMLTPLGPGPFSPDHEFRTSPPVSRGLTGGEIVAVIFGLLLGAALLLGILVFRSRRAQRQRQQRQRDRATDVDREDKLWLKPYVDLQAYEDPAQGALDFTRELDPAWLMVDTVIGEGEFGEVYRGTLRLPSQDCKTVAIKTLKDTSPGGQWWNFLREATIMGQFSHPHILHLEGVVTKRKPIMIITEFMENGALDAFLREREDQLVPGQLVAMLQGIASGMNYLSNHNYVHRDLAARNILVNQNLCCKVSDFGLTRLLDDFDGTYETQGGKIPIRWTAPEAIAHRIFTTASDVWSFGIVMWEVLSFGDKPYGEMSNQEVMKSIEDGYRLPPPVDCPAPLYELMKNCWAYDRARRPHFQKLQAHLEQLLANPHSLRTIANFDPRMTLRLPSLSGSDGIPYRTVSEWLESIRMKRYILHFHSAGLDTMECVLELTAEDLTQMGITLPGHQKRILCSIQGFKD

Compound `N#Cc1ccc(Nc2ccc3[nH]c(=O)[nH]c3c2)c(Cl)c1` has a residual activity [1] of 92%, a residual activity [2] of 81% and a residual activity [3] of 100%. The residual activity [4] was 91%, the residual activity [5] was 86% and the residual activity [6] was 81%. The residual activity [7] was 62%, the residual activity [8] was 91% and the residual activity [9] was 100%. It also gave a residual activity [10] of 100%, a residual activity [11] of 100% and a residual activity [12] of 97%. The residual activity [13] was 97%, the residual activity [14] was 99% and the residual activity [15] was 97%. It also gave a residual activity [16] of 93%, a residual activity [17] of 84% and a residual activity [18] of 100%. For the same compound, the residual activity [19] was 99%, the residual activity [20] was 94% and the residual activity [21] was 55%. The residual activity [22] was 100%, the residual activity [23] was 100% and the residual activity [24] was 85%. It also gave a residual activity [25] of 99%, a residual activity [26] of 100% and a residual activity [27] of 93%. The residual activity [28] was 87%, the residual activity [29] was 84% and the residual activity [30] was 100%. The residual activity [31] was 100%, the residual activity [32] was 100% and the residual activity [33] was 100%. For the same compound, the residual activity [34] was 96%, the residual activity [35] was 100% and the residual activity [36] was 92%. It also gave a residual activity [37] of 82%, a residual activity [38] of 100% and an inhibition [39] of 3.68%. For the same compound, the inhibition [40] was 5.37%, the inhibition [41] was 1.33% and the inhibition [42] was -0.28%. The inhibition [43] was 8.47%, the inhibition [44] was 13.1% and the inhibition [45] was -9.92%.

`O=C1CCc2cc(Nc3cc(OC4CCOCC4)c([N+](=O)[O-])cc3Cl)ccc2N1` was tested, and the residual activity [1] was 88%, the residual activity [2] was 89% and the residual activity [3] was 100%. It also gave a residual activity [4] of 100%, a residual activity [5] of 78% and a residual activity [6] of 96%. It also gave a residual activity [7] of 65%, a residual activity [8] of 81% and a residual activity [9] of 100%. It also gave a residual activity [10] of 93%, a residual activity [11] of 89% and a residual activity [12] of 99%. The residual activity [13] was 100%, the residual activity [14] was 86% and the residual activity [15] was 100%. The residual activity [16] was 100%, the residual activity [17] was 95% and the residual activity [18] was 100%. For the same compound, the residual activity [19] was 100%, the residual activity [20] was 80% and the residual activity [21] was 40%. It also gave a residual activity [22] of 96%, a residual activity [23] of 100% and a residual activity [24] of 86%. For the same compound, the residual activity [25] was 100%, the residual activity [26] was 79% and the residual activity [27] was 100%. It also gave a residual activity [28] of 100%, a residual activity [29] of 77% and a residual activity [30] of 100%. For the same compound, the residual activity [31] was 82%, the residual activity [32] was 100% and the residual activity [33] was 100%. For the same compound, the residual activity [34] was 81%, the residual activity [35] was 100% and the residual activity [36] was 88%. It also gave a residual activity [37] of 83%, a residual activity [38] of 81% and an inhibition [39] of 18.6%. The inhibition [40] was 3.21%, the inhibition [41] was 4.05% and the inhibition [42] was 3.32%. For the same compound, the inhibition [43] was 15.1%, the inhibition [44] was -0.04% and the inhibition [45] was -4.43%.
